Each block holds one compound with its values, some of them ahead of it.
Columns and labels:
[1] = Phantom (in vitro) MR imaging: T1 and T2 relaxivity; type: physicochemical; settings: for r1 / r1 with HSA: 37° C.
Description: Preparation of Samples for Phantom MR Imaging: Samples for phantom imaging experiments contained 50-500 μM complex, 20 mM HEPES and 100 mM NaCl. For samples containing Human Serum Albumin (HSA), 35 mg of HSA was added to these solutions. The pH of all solutions was adjusted to 7.0.
Phantom (in vitro) imaging at 4.7 T. MRI acquisitions were performed using a General Electric 4.7 T/33 cm horizontal bore magnet (GE NMR instruments, Fremont, Calif.) incorporating AVANCE digital electronics (Bruker BioSpec platform with ParaVision v 3.0.2 acquisition software, Bruker Medical, Billerica, Mass.). […] T1 relaxation rates (r1) were acquired utilizing a saturation recovery, spin-echo (SE) sequence with a fixed echo time (TE), 10 ms and repetition times (TR) ranging from 75 to 8000 ms. Signal intensities at each repetition time were sampled by taking the mean intensity within regions of interest (ROI's) using commercially available image processing software (Analyze 7.0, AnalyzeDirect, Overland, Kans.), and r1 and SMAX were calculated by nonlinear fitting of the equation using Matlab's Curve Fitting Toolbox (Matlab 7.0, MathWorks Inc., Natick, Mass.). The T1 relaxivity for each complex was then determined by obtaining the slope of the compound's molar concentration vs r1 via linear regression fitting of the data. Similarly, T2 relaxation rates (R2) were acquired using a multiecho, Carr-Purcell-Meiboom Gill (CPMG) SE sequence with a fixed TR of 2500 ms and TE times ranging from 15 to 300 ms, NEX) 2. R2 and SMAX were calculated as described above using the equation As before, the T2 relaxivity was determined by obtaining the slope of concentration vs r2 via linear regression fitting of the data.
Relaxivity values for Fe(TASO) with and without HSA measured at 4.7 T and 9.4 T, pH 7.2 and 37° C. compared to Gd(DTPA).

[2] = Log P octanol/water partition coefficient; type: physicochemical
[3] = Effective magnetic moment by Evans method; type: physicochemical; settings: aqueous solution
Description: Magnetic moments. Samples for studies of magnetic moment by using the Evans method were prepared using a coaxial NMR insert which contained the diamagnetic standard of 5% t-butanol in D2O. The outer 5 mm NMR tube contained 5 mM paramagnetic complex with fixed concentrations; 4 mM, 8 mM, 40 mM, and 70 mM in presence of 5% t-butanol. The effective magnetic moment (μeff, BM) was calculated by using a modified Evans method for small molecules at 298 K (T).

[4] = Benzoate oxidation in the presence of peroxide and ascorbate (ROS assay); settings: 50 μM complex, 50 μM H2O2, 50 μM ascorbate, pH 7.2
Description: Benzoate oxidation with 50 μM complex, 50 μM H2O2 and 50 μM ascorbate at pH 7.2. [Fe(EDTA)]^− oxidation is set at 100%.
It is desirable that the Fe(III) complex remain in the trivalent oxidation state and not be reduced by peroxide, superoxide, ascorbate or by glutathione at concentrations present in the extracellular medium of cells such as, for example, mammalian cells (e.g., human cells). Normally, a redox potential more negative than zero mV (<0 mV) versus NHE is sufficient. If the complex were to be reduced to Fe(II) and the Fe(II) complex and the complex has a positive redox potential versus NHE, reactive oxygen species may be produced. For example, [Fe(EDTA)]− has a redox potential of approximately 300 mV and produces ROS as shown by the assay in FIG. 7.

[5] = versus NHE; cited from earlier work
[6] = neutral pH, HEPES buffer, 4.7 Tesla MRI scanner
[7] = with human serum albumin, neutral pH, HEPES buffer, 4.7 Tesla
[8] = 4.7 T, pH 7.2, 37° C., without HSA

Log P octanol/water [2]: −2.02±0.30
effective magnetic moment μeff [3]: 5.85±0.14 BM
SMILES: O=P([O-])(O)CN1CCN(CP(=O)([O-])O)CCN(CP(=O)([O-])O)CC1.[Fe+3] [Fe(NOTP)]
r1 ([1]; FIG. 11, 4.7 Tesla): 0.66 ± 0.01 mM⁻¹ s⁻¹
r1 with HSA ([1]; FIG. 11, with HSA, 4.7 Tesla): 1.04 ± 0.06 mM⁻¹ s⁻¹
r1 [1, 6]: 0.66 mM⁻¹ s⁻¹
r1 with HSA [1, 7]: 1.0 mM⁻¹ s⁻¹

SMILES: O=P([O-])(CN1CCN(CP(=O)([O-])c2ccccc2)CCN(CP(=O)([O-])c2ccccc2)CC1)c1ccccc1.[Fe+3] [Fe(TRAP-Ph)]
r1 [1, 6]: 2.9 mM⁻¹ s⁻¹
r1 with HSA [1, 7]: 3.5 mM⁻¹ s⁻¹

SMILES: CNC[C@H](O)[C@@H](O)[C@H](O)[C@H](O)CO.CNC[C@H](O)[C@@H](O)[C@H](O)[C@H](O)CO.O=C([O-])CN(CCN(CC(=O)[O-])CC(=O)O)CCN(CC(=O)[O-])CC(=O)O.[Gd+3] [Gd(DTPA), gadopentetate dimeglumine, reference compound]
r1 4.7 T [1, 8]: 3.1 ± 0.31 mM⁻¹ s⁻¹
r2 4.7 T [1, 8]: 3.9 ± 0.39 mM⁻¹ s⁻¹
r1 in HSA 4.7 T ([1]; in HSA, 4.7 T, pH 7.2, 37° C.): 3.2 ± 0.32 mM⁻¹ s⁻¹
r2 in HSA 4.7 T ([1]; in HSA, 4.7 T, pH 7.2, 37° C.): 4.0 ± 0.40 mM⁻¹ s⁻¹

Benzoate oxidation / ROS production (in words) [4]: produces ROS
Benzoate oxidation relative to [Fe(EDTA)]− ([4]; reference set at 100%): 100%
SMILES: O=C([O-])CN(CCN(CC(=O)[O-])CC(=O)[O-])CC(=O)[O-].[Fe+3] [[Fe(EDTA)]^−]
redox potential [5]: approximately 300 mV
